The values that follow come from patent publication US10377746B2, “Indolin-2-one derivatives” (Hoffmann-La Roche Inc., priority 2015, dated 2019).

By IC50 is commonly meant the concentration that inhibits the measured activity by half. Read a high IC50 as weaker potency.

Test [1] addresses mouse ENT-1 transporter (Mus musculus (Mouse), UniProt Q9JIM1). The experiment in a line: Determination of adenosine transport activity (ENT1, [3H]-adenosine uptake). It is filed as cell-based. The note with it: stable cells expressing mouse ENT-1; [2,8-3H]-adenosine 6 nM, 20 min. The method, then:
To measure adenosine transport activity of ENT-1 mammalian cells, stable cells expressing the mouse ENT-1 transporter were plated on day 1 in 96-well culture plates at the density of 60,000 cells/well, in complete DMEM/F12 medium supplemented with glutamax, 10% FBS and 10 μg/ml puromycin. On day 2, the medium was aspirated and the cells were washed twice with uptake buffer (10 mM Hepes-Tris, pH 7.4 containing 150 mM NaCl, 1 mM
CaCl2, 2.5 mM KCl, 2.5 mM MgSO4, 10 mM D-glucose) (UB). For inhibition experiments, cells were then incubated at RT with various concentrations of compounds with 1% DMSO final. Non-specific uptake was defined in the presence of 10 μM S-(4-Nitrobenzyl)-6-thioinosine (NBTI, Sigma Cat #N2255).
A solution containing [2,8-^3H]-adenosine 6 nM (40 Ci/mmol, American Radiolabeled chemicals Inc, Cat #ART 0287A) was then immediately added to the wells. The plates were then incubated for 20 min with gentle shaking and the reaction was stopped by aspiration of the mixture and washing (three times) with ice-cold UB. The cells were lysed by the addition of scintillation liquid, shaken 3 hours and the radioactivity in the cells was estimated using a microplates scintillation counter (TopCount NXT, Packard).

Test [2] has as its system L-687,414-induced hyperlocomotion. The test is described as follows: L-687,414-induced hyperlocomotion. The test is classed as in vivo, mouse. The note with it: mice; 30 mg/kg ip, 15 min before 50 mg/kg s.c. L-687,414. The method, then: The described compounds of formula I reduce L-687,414-induced hyperlocomotion. This was assessed by using a computerized Digiscan 16 Animal Activity Monitoring System (Omnitech Electronics, Columbus, Ohio) to quantify locomotor activity. Animals were kept under a 12 h light/dark cycle and experiments were performed during the light period. Each activity monitoring chamber consisted of a Plexiglas box (41×41×28 cm; W×L×H) with sawdust bedding on the floor surrounded by invisible horizontal and vertical infrared sensor beams. The test boxes were divided by a Plexiglas cross providing each mouse with 20×20 cm of moving space. Cages were connected to a Digiscan Analyzer linked to a computer that constantly collected the beam status information. Records of photocell beam interruptions for individual animals were taken every 5 min over the duration of the experimental session and the sum of the first 6 periods was used as the final parameter. At least 8 mice were used in each treatment group. Compounds were administered i.p. 15 min before a s.c. injection of 50 mg/kg of L-687,414. Mice were then transferred from their home cage to the recording chambers for a 15-min habituation phase allowing free exploration of the new environment. Horizontal activity was then recorded for a 30-min time period. The % inhibition of L-687,414-induced hyperlocomotion was calculated according to the equation: ((Veh+L-687,414horizontal activity−drug+L-687,414horizontal activity)/Veh+L-687,414horizontal activity)×100
ID50 values, defined as doses of each compound producing 50% inhibition of L-687,414-induced hyperlocomotion, were calculated by linear regression analysis of a dose-response data using an Excel-based computer-fitting program.
As data was not presupposed to be normally distributed, groups treated with test compounds were statistically compared with the control (vehicle-treated) group using one-tailed Mann Whitney U tests. […]

For test [3], the system named is behavioral signature of compound-treated mice. The experiment in a line: SmartCube behavioral signature similarity analysis. The test is classed as in vivo, mouse. An excerpt:
In addition to the reversal of L-687,414 induced hyperlocomotion experiment as described above, some compounds of the present invention have been tested in SmartCube®, an automated system in which the behaviors of compound-treated mice in response to multiple challenges are captured by digital video and analyzed with computer algorithms (Roberds et al., Frontiers in Neuroscience, 2011, Vol. 5, Art. 103, 1-4; Vadim Alexandrov, Dani Brunner, Taleen Hanania, Emer Leahy Eur. J. Pharmacol. 2015, 750, 82-99). In this way, the neuro-pharmacological effects of a test compound can be predicted by similarity to major classes of compounds, such as antipsychotics, anxiolytics and antidepressants.
SmartCube® was used to compare the behavioral signature of a test compound to a database of behavioral signatures obtained from a large set of clinically approved reference drugs, grouped per indications. In this way, the neuro-pharmacological effects of a test compound can be predicted by similarity to major classes of compounds, such as antipsychotics, anxiolytics and antidepressants. This approach is ideally suited to screen collections of existing drugs or drug candidates with previously unknown neuropharmacology, which could expedite the development of new and unexpected treatments for psychiatric disorders.
Some compounds of the present invention were injected i.p. at different doses 15 minutes before the test. At least 8 mice were used in each treatment group. Digital videos of the subjects were processed with computer vision algorithms to extract over 2000 dependent measures including frequency and duration of many different behavioral states. The results of the classifications are presented as bar charts for each compound and dose (mg/kg), the Y-axis indicates the relative probability that the test compound will show efficacy in the specific CNS indication.
Compounds of the present invention show similar signatures to those of atypical antipsychotics. An independent analysis was performed on the unclassified data to determine the similarity of the example compounds to active doses of known atypical antipsychotics. For this analysis, we use discrimination rate as the measure of separability between the two drugs, i.e. one drug's “distinguishability” from another. A rate equal to 50% (or 0.5) corresponds to zero distinguishability. […] In most cases, the example compounds show a similarity to risperidone, clozapine and olanzapine with a discrimination rate of ≤0.70.

The mark [4] stands for this setting: test compound 5 mg/kg i.p., rate <=0.70 = similar.

mouse ENT-1 transporter, sequence (Q9JIM1 whole entry): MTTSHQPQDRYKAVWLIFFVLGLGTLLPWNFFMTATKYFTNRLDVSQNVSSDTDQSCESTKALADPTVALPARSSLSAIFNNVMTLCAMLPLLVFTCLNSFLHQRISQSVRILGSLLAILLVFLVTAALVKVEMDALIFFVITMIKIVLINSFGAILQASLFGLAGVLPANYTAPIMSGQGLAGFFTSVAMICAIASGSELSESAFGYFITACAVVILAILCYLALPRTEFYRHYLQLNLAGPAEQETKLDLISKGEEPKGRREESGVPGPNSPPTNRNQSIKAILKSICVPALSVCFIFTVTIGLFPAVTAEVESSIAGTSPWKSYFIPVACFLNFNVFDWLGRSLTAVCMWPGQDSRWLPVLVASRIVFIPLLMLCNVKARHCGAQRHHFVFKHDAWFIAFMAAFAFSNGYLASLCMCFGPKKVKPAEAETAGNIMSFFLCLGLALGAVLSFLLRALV

As for `Cc1ncc(-c2ccc3c(c2)N(c2ccc(S(C)(=O)=O)cn2)C(=O)C3(C)C)cn1` [Example 19, 3,3-Dimethyl-6-(2-methylpyrimidin-5-yl)-1-(5-(methylsulfonyl)pyridin-2-yl)indolin-2-one], the midpoint of inhibition in test [1], the IC50, lay at 157 nM. Besides, the “Inhibition, ip of L-687,414-induced hyperlocomotion” value in test [2] is 93.5%. Moreover, the “SmartCube similarity to major classes of compounds” value in test [3] (i.p., in words) is reported as “similarity to atypical antipsychotics”. Moreover, in test [3] (setting [4]), the “discrimination rate vs Clozapine (1.0 mg/kg)” value was found to be 0.54, the “discrimination rate vs Olanzapine (0.25 mg/kg)” value was determined as 0.52 and the “discrimination rate vs Risperidone (0.06 mg/kg)” value was 0.50.
